{"source": "patent US20060069132A1", "about": "“Azolecarboxamide herbicides” (priority 2004, published 2006)", "key": {"corn": {"test_system": "corn", "assay": "Test B pre-/postemergence herbicide test", "format": "in vivo, Zea mays", "conditions": "for Corn plant response rating: postemergence", "procedure,_shortened": "(§1)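 Evaluation is visual, comparing treated with control plants on a scale where 0 means no effect and 100 means full control. Treatments were preemergence, or postemergence on seedlings 2–18 cm tall, and held 13–15 days in the greenhouse.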"}, "barnyardgrass [1]": {"test_system": "barnyardgrass", "assay": "Test B flooded paddy test", "format": "in vivo, Echinochloa crus-galli", "conditions": "1000 g ai/ha, scale 0 to 100 (0 no effect, 100 complete control)", "procedure,_shortened": "(§2)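 Formulated test chemicals went onto postemergence plants measuring 2 to 18 cm, at one to four leaves. For the paddy assay, species had reached two leaves. Scoring took place 13–15 days later by eye, relative to untreated plants, using 0 for no effect up to 100 for full control.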"}, "morningglory": {"test_system": "morningglory", "assay": "Test B pre-/postemergence herbicide test", "format": "in vivo, Ipomoea coccinea", "conditions": "for Morningglory plant response rating: postemergence", "procedure,_shortened": "(§3)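 Plants compared with untreated controls 13–15 days post-treatment and given a visual 0–100 injury score. Applications: preemergence to seeds; postemergence at 1- to 4-leaf (2–18 cm); paddy species flooded, 2-leaf stage. Vehicle non-phytotoxic, surfactant included.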"}, "rice": {"test_system": "rice", "assay": "Test B flooded paddy test", "format": "in vivo, Oryza sativa", "conditions": "1000 g ai/ha, scale 0 to 100 (0 no effect, 100 complete control)", "procedure,_shortened": "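Each value is a visual 0–100 response rating taken against controls 13 to 15 days after treatment in the greenhouse. Plants received formulated chemical postemergence at the 1- to 4-leaf stage or, in flooded paddy, at the 2-leaf stage.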"}, "large crabgrass": {"test_system": "large crabgrass", "assay": "Test B pre-/postemergence herbicide test", "format": "in vivo, Digitaria sanguinalis", "conditions": "for Crabgrass, Large plant response rating: postemergence", "procedure,_shortened": "as §1"}, "wheat": {"test_system": "wheat", "assay": "Test B postemergence herbicide test", "format": "in vivo, Triticum aestivum", "parameters": "key to Wheat plant response rating: 0 = no effect, 100 = complete control", "conditions": "postemergence", "procedure,_shortened": "(§4)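 Treated at 2-leaf (paddy) or 1–4-leaf, 2–18 cm (postemergence); greenhouse 13–15 d; visual score vs control, 0 none to 100 complete control; dash = not tested.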"}, "wild oat": {"test_system": "wild oat", "assay": "Test B postemergence herbicide test", "format": "in vivo, Avena fatua", "conditions": "postemergence", "procedure,_shortened": "as §4"}, "pigweed": {"test_system": "pigweed", "assay": "Test B pre-/postemergence herbicide test", "format": "in vivo, Amaranthus retroflexus", "conditions": "for Pigweed plant response rating: postemergence", "procedure,_shortened": "as §1"}, "lambsquarters": {"test_system": "lambsquarters", "assay": "Test B pre-/postemergence herbicide test", "format": "in vivo, Chenopodium album", "conditions": "for Lambsquarters plant response rating: postemergence", "procedure,_shortened": "as §1"}, "barnyardgrass [2]": {"test_system": "barnyardgrass", "assay": "Test B pre-/postemergence herbicide test", "format": "in vivo, Echinochloa crus-galli", "conditions": "for Barnyardgrass plant response rating: postemergence", "procedure,_shortened": "as §3"}, "giant foxtail": {"test_system": "giant foxtail", "assay": "Test B pre-/postemergence herbicide test", "format": "in vivo, Setaria faberi", "conditions": "for Foxtail, Giant plant response rating: postemergence", "procedure,_shortened": "as §1"}, "ducksalad": {"test_system": "ducksalad", "assay": "Test B flooded paddy test", "format": "in vivo, Heteranthera limosa", "conditions": "1000 g ai/ha, scale 0 to 100 (0 no effect, 100 complete control)", "procedure,_shortened": "as §2"}, "Surinam grass": {"test_system": "Surinam grass", "assay": "Test B pre-/postemergence herbicide test", "format": "in vivo, Urochloa decumbens", "conditions": "for Surinam Grass plant response rating: postemergence", "procedure,_shortened": "as §1"}, "velvetleaf": {"test_system": "velvetleaf", "assay": "Test B pre-/postemergence herbicide test", "format": "in vivo, Abutilon theophrasti", "conditions": "for Velvetleaf plant response rating: postemergence", "procedure,_shortened": "as §1"}, "cocklebur": {"test_system": "cocklebur", "assay": "Test B pre-/postemergence herbicide test", "format": "in vivo, Xanthium strumarium", "conditions": "for Cocklebur plant response rating: postemergence", "procedure,_shortened": "as §3"}, "[3]": {"conditions": "125 g ai/ha, 0 = no effect, 100 = complete control, preemergence"}, "[4]": {"conditions": "125 g ai/ha, visual rating, scale 0 (no effect) to 100 (complete control)"}, "[5]": {"conditions": "500 g ai/ha, visual rating, 0 = no effect, 100 = complete control, preemergence"}, "[6]": {"conditions": "500 g ai/ha, scale 0 to 100, 0 is no effect, 100 is complete control"}}}
{"smiles": "CCN1N=C(C(C)(C)C)CC1C(=O)Nc1cc(C(=O)N2CC=CC2)ccc1F", "note": "(racemic) [Compound 310]", "values": [{"measurement": "Corn plant response rating (0 to 100 scale)", "setting": "corn; [3]", "value": 40}, {"measurement": "Corn plant response rating", "setting": "corn; [4]", "value": 0}, {"measurement": "Plant response rating, Corn", "setting": "corn; [5]", "value": 70}, {"measurement": "Corn plant response rating", "setting": "corn; [6]", "value": 20}, {"measurement": "Barnyardgrass plant response rating", "setting": "barnyardgrass [1]", "value": 90}, {"measurement": "Morningglory plant response rating (0 to 100 scale)", "setting": "morningglory; [3]", "value": 0}, {"measurement": "Morningglory plant response rating", "setting": "morningglory; [4]", "value": 0}, {"measurement": "Plant response rating, Morningglory", "setting": "morningglory; [5]", "value": 10}, {"measurement": "Morningglory plant response rating", "setting": "morningglory; [6]", "value": 50}, {"measurement": "Rice plant response rating", "setting": "rice", "value": 80}, {"measurement": "Crabgrass, Large plant response rating (0 to 100 scale)", "setting": "large crabgrass; [3]", "value": 90}, {"measurement": "Crabgrass, Large plant response rating", "setting": "large crabgrass; [4]", "value": 10}, {"measurement": "Plant response rating, Crabgrass, Large", "setting": "large crabgrass; [5]", "value": 100}, {"measurement": "Crabgrass, Large plant response rating", "setting": "large crabgrass; [6]", "value": 30}, {"measurement": "Wheat plant response rating", "setting": "wheat; [4]", "value": 10}, {"measurement": "Wheat plant response rating", "setting": "wheat; [6]", "value": 20}, {"measurement": "Oat, Wild plant response rating", "setting": "wild oat; [4]", "value": 30}, {"measurement": "Oat, Wild plant response rating", "setting": "wild oat; [6]", "value": 40}, {"measurement": "Pigweed plant response rating (0 to 100 scale)", "setting": "pigweed; [3]", "value": 80}, {"measurement": "Pigweed plant response rating", "setting": "pigweed; [4]", "value": 50}, {"measurement": "Plant response rating, Pigweed", "setting": "pigweed; [5]", "value": 100}, {"measurement": "Pigweed plant response rating", "setting": "pigweed; [6]", "value": 70}, {"measurement": "Lambsquarters plant response rating (0 to 100 scale)", "setting": "lambsquarters; [3]", "value": 100}, {"measurement": "Lambsquarters plant response rating", "setting": "lambsquarters; [4]", "value": 60}, {"measurement": "Plant response rating, Lambsquarters", "setting": "lambsquarters; [5]", "value": 100}, {"measurement": "Lambsquarters plant response rating", "setting": "lambsquarters; [6]", "value": 80}, {"measurement": "Barnyardgrass plant response rating (0 to 100 scale)", "setting": "barnyardgrass [2]; [3]", "value": 60}, {"measurement": "Barnyardgrass plant response rating", "setting": "barnyardgrass [2]; [4]", "value": 0}, {"measurement": "Plant response rating, Barnyardgrass", "setting": "barnyardgrass [2]; [5]", "value": 90}, {"measurement": "Barnyardgrass plant response rating", "setting": "barnyardgrass [2]; [6]", "value": 20}, {"measurement": "Foxtail, Giant plant response rating (0 to 100 scale)", "setting": "giant foxtail; [3]", "value": 50}, {"measurement": "Foxtail, Giant plant response rating", "setting": "giant foxtail; [4]", "value": 10}, {"measurement": "Plant response rating, Foxtail, Giant", "setting": "giant foxtail; [5]", "value": 100}, {"measurement": "Foxtail, Giant plant response rating", "setting": "giant foxtail; [6]", "value": 40}, {"measurement": "Ducksalad plant response rating", "setting": "ducksalad", "value": 90}, {"measurement": "Surinam Grass plant response rating (0 to 100 scale)", "setting": "Surinam grass; [3]", "value": 30}, {"measurement": "Surinam Grass plant response rating", "setting": "Surinam grass; [4]", "value": 10}, {"measurement": "Plant response rating, Surinam Grass", "setting": "Surinam grass; [5]", "value": 70}, {"measurement": "Surinam Grass plant response rating", "setting": "Surinam grass; [6]", "value": 20}, {"measurement": "Velvetleaf plant response rating", "setting": "velvetleaf; [4]", "value": 20}, {"measurement": "Plant response rating, Velvetleaf", "setting": "velvetleaf; [5]", "value": 100}, {"measurement": "Velvetleaf plant response rating", "setting": "velvetleaf; [6]", "value": 50}, {"measurement": "Cocklebur plant response rating (0 to 100 scale)", "setting": "cocklebur; [3]", "value": 10}, {"measurement": "Cocklebur plant response rating", "setting": "cocklebur; [4]", "value": 0}, {"measurement": "Plant response rating, Cocklebur", "setting": "cocklebur; [5]", "value": 50}, {"measurement": "Cocklebur plant response rating", "setting": "cocklebur; [6]", "value": 20}]}
